Data set [1] concerns the target T1, human TRPM8 receptor expressed in transfected 293H cells (Homo sapiens, UniProt Q7Z2W7).
T1 construct: expressed in transfected cells; host or cells: 293H cells
The data set can be described thus: TRPM8 Human Transient Potential Ion Channel Cell Based Agonist Calcium Flux Assay (FLIPR). The following applies: Ca2+ mobilization, fluorometric detection, 293H cells; response relative to 3 μM icilin; read-out: TRPM8 agonist EC50. The text has this: This example discloses results from TRPM8 Human Transient Potential Ion Channel Cell Based Agonist Calcium Flux Assay. Evaluation of the agonist activity of compounds at the human TRPM8 receptor expressed in transfected 293H cells, determined by measuring their effect on cytosolic Ca2+ ion mobilization using a fluorometric detection method.
Protocol: The cells are suspended in DMEM buffer (Invitrogen), then distributed in microplates at a density of 3×10^4 cells/well. The fluorescent probe (Fluo4 Direct, Invitrogen) in HBSS buffer (Invitrogen) complemented with 20 mM Hepes (Invitrogen) (pH 7.4) is then added into each well and equilibrated with the cells for 60 min at 37° C. then 15 min at 22° C. Thereafter, the assay plates are positioned in a microplate reader (CellLux, PerkinElmer) which is used for the addition of the test compound, reference agonist or HBSS buffer (basal control), and the measurements of changes in fluorescence intensity which varies proportionally to the free cytosolic Ca2+ ion concentration. For stimulated control measurements, Icilin at 3 μM is added in separate assay wells. The results are expressed as a percent of the control response to 3 μM icilin. The standard reference agonist is Icilin, which is tested in each experiment at several concentrations to generate a concentration-response curve from which its EC50 value is calculated. (Behrendt, H. J., Germann, T., Gillen, C and Hatt, H. and Jostock, R. (2004), Characterization of the mouse cold-menthol receptor TRPM8 and vanilloid receptor type-1 VR1 using a fluorometric imaging plate reader (FLIPR) assay, Br. J. Pharmacol., 141: 737.)
Data analysis: EC50 values were determined as the concentration of test substance required to produce half-maximal increases in [Ca^2+]. Maximal [Ca^2+] responses were measured as peak fluorescence intensity (FI) minus basal FI, and expressed as percentages of the maximum response to icilin. Data are given as means±s.e.m., unless otherwise stated.
The EC50 values (concentration producing a half-maximal response) and IC50 values (concentration causing a half-maximal inhibition of the control agonist response) were determined by non-linear regression analysis of the concentration-response curves generated with mean replicate values using Hill equation curve fitting:
where Y=response, A=left asymptote of the curve, D=right asymptote of the curve, C=compound concentration, and C50=EC50, and nH=slope factor.
A general note: Calcium flux is commonly read through the fluorescence of an indicator in the cells.

Data set [2] is described as follows: Solubility assay in DI water. Type of data set: physicochemical. The following applies: DI water, thermodynamic from solid, HCl salts, visual, stepwise dilution from 200 mg/mL, sonication and vortex. As for the experimental part: In order to determine the aqueous solubility of the compounds indicated, the HCl salts of the following compounds were incubated at 200 mg/mL in DI water followed by sonication for 60 seconds and then vortex stirring for 60 seconds. If insoluble material was observed, the sample was diluted to 150, 100, 50, 25, or 20 mg/mL until no insoluble material was observed. After each dilution, each sample was sonicated for 60 seconds, vortexed for 60 seconds and let equilibrate with occasional shaking for 30 minutes.

A short description of data set [3]: Solution state stability assay. The following applies: 50° C.; for % degradation at 28 days: HPLC. It is filed as physicochemical. As for the experimental part:
Compounds were incubated in the buffer media indicated (ingredients for making of PBS buffer and sodium citrate/citric acid buffer were obtained from Sigma-Aldrich, St. Louis, MO, USA). The reactions were conducted at either 50° C. and for 28 days. Samples were collected at specific time points and analyzed for % degradation of the parent compound based on UV/Vis analysis.
Methods: Samples were weighed using a Mettler Toledo XS105 analytical balance (accurate to +/−0.01 mg). Accurate dilutions were made with a P1000, P200, or P20 Gilson Pipetman, or an Eppendorf Maxipettor 1-10 mL pipettor. pH Measurements were made with a Hanna Instruments HI 4222 pH meter and a Hanna instruments HI 1330B micro pH probe. Samples were analyzed via high pressure liquid chromatography using an Agilent series 1100 HPLC instrument with a Grace Alltima column. Chromatograms were manually integrated. Individual chromatograms are assigned an automatic HPLC identification number.
Freshly prepared 1.0 mg/mL solution of each compound listed in Table # was allotted into two-dram clear glass vials. […] The vials were then stored in an oven set to 50° C. At the appropriate time points, the vials were removed from the oven, vortexed for 30 seconds and an aliquot (400 μL) was pipetted into an HPLC vial and quenched with 1% TFA in ACN (400 μL). […] For all samples, aliquots were taken after 28 days. Quenched vials were immediately analyzed via HPLC.

For data set [4] the following is noted: cited from earlier work.

Broadly, the EC50 is the concentration that produces a half-maximal response. In general, solubility refers to the concentration that dissolves in the medium under given conditions.

T1 sequence (Q7Z2W7 whole entry): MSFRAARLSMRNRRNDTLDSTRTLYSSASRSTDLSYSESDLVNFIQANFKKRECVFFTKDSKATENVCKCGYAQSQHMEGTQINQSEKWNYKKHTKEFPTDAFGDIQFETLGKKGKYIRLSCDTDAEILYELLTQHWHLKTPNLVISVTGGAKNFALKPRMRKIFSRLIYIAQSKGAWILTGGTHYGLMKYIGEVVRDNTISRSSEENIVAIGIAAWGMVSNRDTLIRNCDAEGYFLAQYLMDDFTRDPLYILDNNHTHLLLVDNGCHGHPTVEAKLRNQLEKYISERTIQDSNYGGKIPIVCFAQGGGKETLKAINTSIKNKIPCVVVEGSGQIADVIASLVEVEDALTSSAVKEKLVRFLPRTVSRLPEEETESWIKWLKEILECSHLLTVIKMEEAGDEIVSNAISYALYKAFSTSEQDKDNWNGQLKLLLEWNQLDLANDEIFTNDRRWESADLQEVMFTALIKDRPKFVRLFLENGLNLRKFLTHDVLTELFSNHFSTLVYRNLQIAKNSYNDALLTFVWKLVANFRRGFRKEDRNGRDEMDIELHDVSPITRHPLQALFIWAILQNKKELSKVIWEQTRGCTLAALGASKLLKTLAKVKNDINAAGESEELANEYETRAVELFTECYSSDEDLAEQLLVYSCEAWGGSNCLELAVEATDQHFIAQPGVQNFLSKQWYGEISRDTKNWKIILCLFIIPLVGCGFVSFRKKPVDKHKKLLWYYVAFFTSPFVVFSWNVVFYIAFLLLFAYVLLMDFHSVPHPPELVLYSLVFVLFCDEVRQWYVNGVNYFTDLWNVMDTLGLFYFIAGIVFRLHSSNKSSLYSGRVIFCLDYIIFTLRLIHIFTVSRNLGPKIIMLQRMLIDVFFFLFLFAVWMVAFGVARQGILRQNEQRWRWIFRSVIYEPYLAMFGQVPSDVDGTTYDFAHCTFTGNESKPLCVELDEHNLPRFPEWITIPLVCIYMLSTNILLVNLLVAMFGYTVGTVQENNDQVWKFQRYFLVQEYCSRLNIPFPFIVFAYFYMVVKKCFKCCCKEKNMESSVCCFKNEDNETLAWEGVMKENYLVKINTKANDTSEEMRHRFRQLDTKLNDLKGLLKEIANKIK

On to `CC(C)[C@@H]1CC[C@@H](C)C[C@H]1C(=O)NCc1ccc(CN)cc1.Cl` [Compound 4, (1R,2S,5R)-N-(4-(aminomethyl)benzyl)-2-isopropyl-5-methylcyclohexanecarboxamide hydrochloride], for which the EC50 in data set [1] came out at 100 nM. Moreover, the solubility at 30 min in data set [2] is at least 20 mg/mL. Also, in data set [3] (buffer, 28 days), the “aqueous stability / hydrolysis, comparison in words” value is “greatest aqueous stability”. Moreover, the “% degradation at 28 days” value in data set [3] (pH = ~5.0 (0.2 M aqueous sodium citrate/citric acid buffer)) is on record as around 7.1%; in data set [3] (pH = ~7.4 (1X Phosphate Buffered Saline)), around 1.7%.

As for `CC(C)[C@@H]1CC[C@@H](C)C[C@H]1C(=O)NCc1ccc(C2CCNCC2)cc1.Cl` [Compound 16, (1R,2S,5R)-2-isopropyl-5-methyl-N-(4-(piperidin-4-yl)benzyl)cyclohexanecarboxamide hydrochloride], the EC50 in data set [1] amounted to 345 nM. Further, the solubility at 30 min in data set [2] was at least 20 mg/mL.

With `CC(C)[C@@H]1CC[C@@H](C)C[C@H]1O` [menthol, (1R,2S,5R)-2-isopropyl-5-methylcyclohexanol], the “known aqueous solubility in water” value in data set [4] was around 0.4 mg/mL.

(Values after US20240199564A1, “TRPM8 AGONISTS AS COOLING AGENTS AND FOR THE TREATMENT OF DISEASE” (Concentric Analgesics, Inc., priority 2021, published 2024).)
